The subject of this assay is recombinant NL4-3 virus (nef section replaced with Renilla luciferase gene, Gag P373S). As to the kind of experiment: HIV Cell Culture Assay (luciferase reporter virus in MT-2 cells). The class given is cell-based. Conditions: NL43. As to the method: MT-2 cells and 293T cells were obtained from the NIH AIDS Research and Reference Reagent Program. MT-2 cells were propagated in RPMI 1640 media supplemented with 10% heat inactivated fetal bovine serum, […]. The 293T cells were propagated in DMEM media supplemented with 10% heat inactivated fetal bovine serum (FBS), 100 units/mL penicillin G and 100 μg/mL streptomycin. The proviral DNA clone of NL4-3 was obtained from the NIH AIDS Research and Reference Reagent Program. A recombinant NL4-3 virus, in which a section of the nef gene from NL4-3 was replaced with the Renilla luciferase gene, was used as a reference virus. In addition, residue Gag P373 was converted to P373S. Briefly, the recombinant virus was prepared by transfection of the altered proviral clone of NL4-3. Transfections were performed in 293T cells using LipofectAMINE PLUS from Invitrogen (Carlsbad, Calif.), according to manufacturer's instruction. The virus was titered in MT-2 cells using luciferase enzyme activity as a marker. Luciferase was quantitated using the Dual Luciferase kit from Promega (Madison, Wis.), with modifications to the manufacturer's protocol. The diluted Passive Lysis solution was pre-mixed with the re-suspended Luciferase Assay Reagent and the re-suspended Stop & Glo Substrate (2:1:1 ratio). Fifty (50) μL of the mixture was added to each aspirated well on assay plates and luciferase activity was measured immediately on a Wallac TriLux (Perkin-Elmer). Antiviral activities of inhibitors toward the recombinant virus were quantified by measuring luciferase activity in cells infected for 4-5 days with NLRluc recombinants in the presence serial dilutions of the inhibitor.
(In general: In a reporter assay the amount or activity of a reporter protein is the signal.)
As a reminder, the EC50 is the concentration at which the effect is half-maximal. On to `C=C(C)[C@@H]1CC[C@]2(C(=O)O)C[C@@H]3OC(C)(C)O[C@H]4C[C@H]5C(C)(C)C(c6ccc(C(=O)O)cc6)=CC[C@]5(C)[C@H]5CC[C@H]([C@@H]12)[C@]3(C)[C@]45C` [Example 1, (1R,3aS,4aS,4a1R,7aS,7a1R,8aR,12aS,12bR,14aR,14bR)-10-(4-carboxyphenyl)-4a1,6,6,7a1,9,9,12a-heptamethyl-1-(prop-1-en-2-yl)-2,3,3a,4,4a,4a1,7a,7a1,8,8a,9,12,12a,12b,13,14,14a,14b-octadecahydro-1H-cyclopenta[1,2]chryseno[4,5-def][1,3]dioxepine-3a-carboxylic acid], for which the EC50 is 40 nM.
The value for `C=C(C)[C@@H]1CC[C@]2(C(=O)O)C[C@H](O)[C@]3(C)[C@H](CC[C@@H]4[C@@]5(C)CC=C(c6ccc(C(=O)O)cc6)C(C)(C)[C@@H]5C[C@H](O)[C@]43C)[C@@H]12` [Example 2, (1R,3aS,5S,5aR,5bR,6S,7aR,11aS,11bR,13aR,13bR)-9-(4-carboxyphenyl)-5,6-dihydroxy-5a,5b,8,8,11a-pentamethyl-1-(prop-1-en-2-yl)-2,3,3a,4,5,5a,5b,6,7,7a,8,11,11a,11b,12,13,13a,13b-octadecahydro-1H-cyclopenta[a]chrysene-3a-carboxylic acid] was 1560 nM; that for `C=C(C)[C@@H]1CC[C@]2(NCCN3CCS(=O)(=O)CC3)C[C@H](O)[C@]3(C)[C@H](CC[C@@H]4[C@@]5(C)CC=C(c6ccc(C(=O)O)cc6)C(C)(C)[C@@H]5C[C@H](O)[C@]43C)[C@@H]12` [Example 3, 4-((1R,3aS,5S,5aR,5bR,6S,7aR,11aS,11bR,13aR,13bR)-3a-((2-(1,1-dioxidothiomorpholino)ethyl)amino)-5,6-dihydroxy-5a,5b,8,8,11a-pentamethyl-1-(prop-1-en-2-yl)-2,3,3a,4,5,5a,5b,6,7,7a,8,11,11a,11b,12,13,13a,13b-octadecahydro-1H-cyclopenta[a]chrysen-9-yl)benzoic acid] was 17 nM; that for `CC(C)[C@@H]1CC[C@]2(C(=O)O)CC[C@]3(C)[C@H](CC[C@@H]4[C@@]5(C)C(=O)C=C(c6ccc(C(=O)O)cc6)C(C)(C)[C@@H]5CC[C@]43C)[C@@H]12` [Example 4, (1S,3aS,5aR,5bR,7aS,11aS,11bS,13aR,13bR)-9-(4-carboxyphenyl)-1-isopropyl-5a,5b,8,8,11a-pentamethyl-11-oxo-2,3,3a,4,5,5a,5b,6,7,7a,8,11,11a,11b,12,13,13a,13b-octadecahydro-1H-cyclopenta[a]chrysene-3a-carboxylic acid] was 29 nM.
The same measure for `CC(C)[C@@H]1CC[C@]2(C(=O)O)CC[C@]3(C)[C@H](CC[C@@H]4[C@@]5(C)[C@@H](O)C=C(c6ccc(C(=O)O)cc6)C(C)(C)[C@@H]5CC[C@]43C)[C@@H]12` [Example 5, (1S,3aS,5aR,5bR,7aS,11S,11aS,11bS,13aR,13bR)-9-(4-carboxyphenyl)-11-hydroxy-1-isopropyl-5a,5b,8,8,11a-pentamethyl-2,3,3a,4,5,5a,5b,6,7,7a,8,11,11a,11b,12,13,13a,13b-octadecahydro-1H-cyclopenta[a]chrysene-3a-carboxylic acid]: 410 nM; for `CC(C)[C@@H]1CC[C@]2(C(=O)O)CC[C@]3(C)[C@H](CC[C@@H]4[C@@]5(C)[C@H](O)C=C(c6ccc(C(=O)O)cc6)C(C)(C)[C@@H]5CC[C@]43C)[C@@H]12` [Example 6, (1S,3aS,5aR,5bR,7aS,11R,11aS,11bS,13aR,13bR)-9-(4-carboxyphenyl)-11-hydroxy-1-isopropyl-5a,5b,8,8,11a-pentamethyl-2,3,3a,4,5,5a,5b,6,7,7a,8,11,11a,11b,12,13,13a,13b-octadecahydro-1H-cyclopenta[a]chrysene-3a-carboxylic acid]: 1730 nM; for `CC(C)[C@@H]1CC[C@]2(C(=O)NCCCN3CCS(=O)(=O)CC3)CC[C@]3(C)[C@H](CC[C@@H]4[C@@]5(C)[C@H](F)C=C(c6ccc(C(=O)O)cc6)C(C)(C)[C@@H]5CC[C@]43C)[C@@H]12` [Example 8, 4-((1S,3aS,5aR,5bR,7aS,11R,11aS,11bS,13aR,13bR)-3a-((3-(1,1-dioxidothiomorpholino)propyl)carbamoyl)-11-fluoro-1-isopropyl-5a,5b,8,8,11a-pentamethyl-2,3,3a,4,5,5a,5b,6,7,7a,8,11,11a,11b,12,13,13a,13b-octadecahydro-1H-cyclopenta[a]chrysen-9-yl)benzoic acid]: 3.31 nM.
The value for `CC(C)[C@@H]1CC[C@]2(N)CC[C@]3(C)[C@H](CC[C@@H]4[C@@]5(C)C(=O)C=C(c6ccc(C(=O)O)cc6)C(C)(C)[C@@H]5CC[C@]43C)[C@@H]12` [Example 9, 4-((1S,3aS,5aR,5bR,7aS,11aS,11bS,13aR,13bR)-3a-amino-1-isopropyl-5a,5b,8,8,11a-pentamethyl-11-oxo-2,3,3a,4,5,5a,5b,6,7,7a,8,11,11a,11b,12,13,13a,13b-octadecahydro-1H-cyclopenta[a]chrysen-9-yl)benzoic acid] was 1.2 nM; that for `CC(C)[C@@H]1CC[C@]2(NCCN3CCS(=O)(=O)CC3)CC[C@]3(C)[C@H](CC[C@@H]4[C@@]5(C)C(=O)C=C(c6ccc(C(=O)O)cc6)C(C)(C)[C@@H]5CC[C@]43C)[C@@H]12` [Example 10, 4-((1S,3aS,5aR,5bR,7aS,11aS,11bS,13aR,13bR)-3a-((2-(1,1-dioxidothiomorpholino)ethyl)amino)-1-isopropyl-5a,5b,8,8,11a-pentamethyl-11-oxo-2,3,3a,4,5,5a,5b,6,7,7a,8,11,11a,11b,12,13,13a,13b-octadecahydro-1H-cyclopenta[a]chrysen-9-yl)benzoic acid] was 1.2 nM; that for `CC(C)[C@@H]1CC[C@]2(C(=O)O)CC[C@]3(C)[C@H](CC[C@@H]4[C@@]5(C)C[C@@H]6O[C@]6(c6ccc(C(=O)O)cc6)C(C)(C)[C@@H]5CC[C@]43C)[C@@H]12` [Example 11, (1S,3aS,5aR,5bR,7aR,8aS,9aS,10aR,10bR,12aR,12bR)-8a-(4-carboxyphenyl)-1-isopropyl-5a,5b,8,8,10a-pentamethylicosahydro-1H-cyclopenta[7,8]chryseno[2,3-b]oxirene-3a-carboxylic acid] was 1310 nM.

The values are drawn from patent US9920090B2, “Betulinic acid derivatives with HIV maturation inhibitory activity” (priority 2014, dated 2018).
